Results: the NIST ThermoML archive (doi:10.1021/acs.jced.7b00106)

Settings: Liquid, Hot wire method

FC(F)(F)/C=C/Cl [(E)-1-chloro-3,3,3-trifluoroprop-1-ene]
Settings	thermal conductivity [W/m/K]
222.73 K, 17781 kPa	0.1124
222.75 K, 44676 kPa	0.1192
222.77 K, 8729 kPa	0.1105
222.79 K, 453 kPa	0.107
222.79 K, 26430 kPa	0.1147
222.79 K, 35560 kPa	0.1173
222.86 K, 17785 kPa	0.112
222.91 K, 8723 kPa	0.1098
222.91 K, 65386 kPa	0.1248
222.92 K, 456 kPa	0.1067
222.97 K, 54368 kPa	0.122
223.03 K, 44680 kPa	0.1196
223.06 K, 65383 kPa	0.1239
223.07 K, 35560 kPa	0.1178
223.11 K, 26433 kPa	0.1152
223.11 K, 54368 kPa	0.122
223.14 K, 17782 kPa	0.1124
223.17 K, 44685 kPa	0.1194
223.21 K, 8729 kPa	0.1098
223.22 K, 35566 kPa	0.1174
223.23 K, 454 kPa	0.1071
223.26 K, 26433 kPa	0.1147
223.3 K, 17785 kPa	0.112
223.34 K, 65385 kPa	0.1243
223.36 K, 8728 kPa	0.1097
223.39 K, 453 kPa	0.1069
223.39 K, 54369 kPa	0.1224
223.46 K, 44687 kPa	0.1198
223.5 K, 65379 kPa	0.1241
223.51 K, 35560 kPa	0.1174
223.56 K, 26434 kPa	0.1151
223.56 K, 54369 kPa	0.1215
223.6 K, 17788 kPa	0.1125
223.63 K, 44686 kPa	0.1196
223.67 K, 8730 kPa	0.1101
223.68 K, 35563 kPa	0.1172
223.71 K, 455 kPa	0.1073
223.73 K, 26431 kPa	0.1148
223.78 K, 17788 kPa	0.1121
223.79 K, 65376 kPa	0.1246
223.85 K, 54372 kPa	0.122
223.86 K, 8734 kPa	0.1093
223.89 K, 457 kPa	0.1068
223.93 K, 44690 kPa	0.1197
223.98 K, 35565 kPa	0.1178
223.98 K, 65378 kPa	0.124
224.04 K, 26437 kPa	0.1151
224.05 K, 54371 kPa	0.1216
224.1 K, 17783 kPa	0.1124
224.13 K, 44694 kPa	0.1195
224.18 K, 8734 kPa	0.1094
224.19 K, 35567 kPa	0.1173
224.23 K, 457 kPa	0.107
224.25 K, 26439 kPa	0.1146
224.31 K, 17787 kPa	0.1119
224.39 K, 8734 kPa	0.1092
224.45 K, 456 kPa	0.1066
241.66 K, 13434 kPa	0.1054
241.67 K, 7098 kPa	0.1036
241.69 K, 586 kPa	0.1011
241.75 K, 13448 kPa	0.1051
241.78 K, 7107 kPa	0.1033
241.79 K, 578 kPa	0.1008
241.92 K, 53262 kPa	0.1169
241.93 K, 63858 kPa	0.1199
241.94 K, 36063 kPa	0.1121
241.94 K, 43857 kPa	0.1153
241.99 K, 28061 kPa	0.1109
242.03 K, 20422 kPa	0.1077
242.03 K, 53260 kPa	0.1171
242.03 K, 63849 kPa	0.1192
242.04 K, 43848 kPa	0.114
